Laboratory results taken from patent US20240148821A1, “PHARMACEUTICAL USE OF CYCLIC PEPTIDE COMPOUND” (CHUGAI SEIYAKU KABUSHIKI KAISHA, priority 2021, published 2024).
Numbered stars: 1 amine (or outer) side, 2 acyl side, 3 side chain; on linkers, the order of the positions; unused ones are H or OH. Bridge positions count the residues as written; N and C are the ends. Square brackets hold non-standard residues; d marks the D form. Peptide text beside a SMILES is read from it. * marks the point of attachment. hPhe(3-Cl-4-CF3) = N[C@@H](CCc1ccc(C(F)(F)F)c(Cl)c1)C(=O)O; NMePhe(4-Me) = CN[C@@H](Cc1ccc(C)cc1)C(=O)O; NMedβ3hAla = C[C@H](CC(=O)[*:2])N(C)[*:1]; NMeGly(cPent) = CN[C@H](C(=O)O)C1CCCC1; NMeCha = CN[C@@H](CC1CCCCC1)C(=O)O; NMeCba = CN[C@@H](CC1CCC1)C(=O)O; NMeChg = CN[C@H](C(=O)O)C1CCCCC1; NMeF = CN[C@@H](Cc1ccccc1)C(=O)O; NMeI = CC[C@H](C)[C@H](NC)C(=O)O; NMeD = CN[C@@H](CC(=O)O)C(=O)O; NMeL = CN[C@@H](CC(C)C)C(=O)O; NMeNle = CCCC[C@H](NC)C(=O)O; NMeNva = CCC[C@H](NC)C(=O)O; NMeV = CN[C@H](C(=O)O)C(C)C; d(β3hA) = C[C@@H](N)CC(=O)O; NMeAbu = CC[C@H](NC)C(=O)O; NMeS = CN[C@@H](CO)C(=O)O; NMeA = CN[C@@H](C)C(=O)O; Piperidide = C1CCN(*)CC1; Pyrrolidide = C1CCN(*)C1; Ac5c = NC1(C(=O)O)CCCC1; Aze = O=C(O)[C@@H]1CCN1; Ac4c = NC1(C(=O)O)CCC1; Sar = CNCC(=O)O; Propyl = CCC*

What follows are compounds tested against protein-protein interaction between Kras and SOS1 (biotin-tagged human Kras loaded with GDP, His-tagged human SOS1) (Homo sapiens (Human), UniProt P01116, G12D) (assay: Protein-protein interaction inhibition between Kras and SOS1 (KrasG12D-SOS PPI) using AlphaScreen). Details: AlphaScreen; biotin-tagged human Kras loaded with GDP, His-tagged human SOS1; read-out: KRAS G12D-SOS PPI IC50.
Type: biochemical

| Structure (SMILES) | IC50 [nM] |
| --- | --- |
| CC[C@H](C)[C@@H]1NC(=O)[C@H](CC(C)C)N(C)C(=O)C[C@@H](C)NC(=O)[C@H](C(C)C)N(C)C(=O)C2(CCCC2)NC(=O)[C@@H]2CCCN2C(=O)[C@H](CCc2ccc(C(F)(F)F)c(Cl)c2)NC(=O)CN(C)C(=O)[C@H](CC2CCCCC2)N(C)C(=O)[C@@H]2CCN2C(=O)[C@H](CC)N(C)C1=O [Compound 1593] (cyclo([Ac5c][NMeV][d(β3hA)][NMeL]I[NMeAbu][Aze][NMeCha][Sar][hPhe(3-Cl-4-CF3)]P)) | 140 |
| CCCC[C@H]1C(=O)N2CC[C@H]2C(=O)N(C)[C@@H](CC2CCCCC2)C(=O)N(C)CC(=O)N[C@@H](CCc2ccc(C(F)(F)F)c(Cl)c2)C(=O)N2CCC[C@H]2C(=O)NC2(CCCC2)C(=O)N(C)[C@@H](C(C)C)C(=O)N(C)[C@H](C(=O)N2CCCCC2)CC(=O)N(C)[C@@H](CC(C)C)C(=O)N[C@@H]([C@@H](C)CC)C(=O)N1C [Compound 1596] ([NMeL]I[NMeNle][Aze][NMeCha][Sar][hPhe(3-Cl-4-CF3)]P[Ac5c][NMeV][NMeD]-Piperidide; lactam N-11) | 23 |
| CCC[C@H]1C(=O)N2CC[C@H]2C(=O)N(C)[C@@H](CC2CCCCC2)C(=O)N(C)CC(=O)N[C@@H](CCc2ccc(C(F)(F)F)c(Cl)c2)C(=O)N2CCC[C@H]2C(=O)NC2(CCCC2)C(=O)N(C)[C@@H](C(C)C)C(=O)N(C)[C@H](C(=O)N2CCCCC2)CC(=O)N(C)[C@@H](CC(C)C)C(=O)N[C@@H]([C@@H](C)CC)C(=O)N1C [Compound 1601] ([NMeL]I[NMeNva][Aze][NMeCha][Sar][hPhe(3-Cl-4-CF3)]P[Ac5c][NMeV][NMeD]-Piperidide; lactam N-11) | 22 |
| CC[C@H](C)[C@@H]1NC(=O)[C@H](CC(C)C)N(C)C(=O)C[C@@H](C(=O)N2CCCCC2)N(C)C(=O)[C@H](C(C)C)N(C)C(=O)C2(CCCC2)NC(=O)[C@@H]2CCCN2C(=O)[C@H](CCc2ccc(C(F)(F)F)c(Cl)c2)NC(=O)CN(C)C(=O)[C@H](CC2CCCCC2)N(C)C(=O)[C@@H]2CCN2C(=O)[C@H](CC2CCC2)N(C)C1=O [Compound 1603] ([NMeL]I[NMeCba][Aze][NMeCha][Sar][hPhe(3-Cl-4-CF3)]P[Ac5c][NMeV][NMeD]-Piperidide; lactam N-11) | 94 |
| CCCC[C@H]1C(=O)N[C@@H]([C@@H](C)CC)C(=O)N(C)[C@@H](C)C(=O)N2CC[C@H]2C(=O)N(C)[C@@H](CC2CCCCC2)C(=O)N(C)CC(=O)N[C@@H](CCc2ccc(C(F)(F)F)c(Cl)c2)C(=O)N2CCC[C@H]2C(=O)NC2(CCCC2)C(=O)N(C)[C@@H](C(C)C)C(=O)N(C)[C@H](C(=O)N2CCCCC2)CC(=O)N1C [Compound 1616] ([NMeNle]I[NMeA][Aze][NMeCha][Sar][hPhe(3-Cl-4-CF3)]P[Ac5c][NMeV][NMeD]-Piperidide; lactam N-11) | 12 |
| CC[C@H](C)[C@@H]1NC(=O)[C@H](CC(C)C)N(C)C(=O)C[C@@H](C)NC(=O)[C@H](C(C)C)N(C)C(=O)C2(CCCC2)NC(=O)[C@@H]2CCCN2C(=O)[C@H](CCc2ccc(C(F)(F)F)c(Cl)c2)NC(=O)CN(C)C(=O)[C@H](CC2CCCCC2)N(C)C(=O)[C@@H]2CCN2C(=O)[C@H](CC(C)C)N(C)C1=O [Compound 1619] (cyclo([Ac5c][NMeV][d(β3hA)][NMeL]I[NMeL][Aze][NMeCha][Sar][hPhe(3-Cl-4-CF3)]P)) | 360 |
| CC[C@H](C)[C@@H]1NC(=O)[C@H](CC(C)C)N(C)C(=O)C[C@@H](C)NC(=O)[C@H](C(C)C)N(C)C(=O)C2(CCCC2)NC(=O)[C@@H]2CCCN2C(=O)[C@H](CCc2ccc(C(F)(F)F)c(Cl)c2)NC(=O)CN(C)C(=O)[C@H](CC2CCCCC2)N(C)C(=O)[C@@H]2CCN2C(=O)[C@H](Cc2ccccc2)N(C)C1=O [Compound 1628] (cyclo([Ac5c][NMeV][d(β3hA)][NMeL]I[NMeF][Aze][NMeCha][Sar][hPhe(3-Cl-4-CF3)]P)) | 67 |
| CC[C@H](C)[C@@H]1NC(=O)[C@H](CC)N(C)C(=O)C[C@@H](C(=O)N2CCCCC2)N(C)C(=O)[C@H](C(C)C)N(C)C(=O)C2(CCCC2)NC(=O)[C@@H]2CCCN2C(=O)[C@H](CCc2ccc(C(F)(F)F)c(Cl)c2)NC(=O)CN(C)C(=O)[C@H](CC2CCCCC2)N(C)C(=O)[C@@H]2CCN2C(=O)[C@H](C)N(C)C1=O [Compound 1638] ([NMeAbu]I[NMeA][Aze][NMeCha][Sar][hPhe(3-Cl-4-CF3)]P[Ac5c][NMeV][NMeD]-Piperidide; lactam N-11) | 7.3 |
| CCC[C@H]1C(=O)N[C@@H]([C@@H](C)CC)C(=O)N(C)[C@@H](C)C(=O)N2CC[C@H]2C(=O)N(C)[C@@H](CC2CCCCC2)C(=O)N(C)CC(=O)N[C@@H](CCc2ccc(C(F)(F)F)c(Cl)c2)C(=O)N2CCC[C@H]2C(=O)NC2(CCCC2)C(=O)N(C)[C@@H](C(C)C)C(=O)N(C)[C@H](C(=O)N2CCCCC2)CC(=O)N1C [Compound 1639] ([NMeNva]I[NMeA][Aze][NMeCha][Sar][hPhe(3-Cl-4-CF3)]P[Ac5c][NMeV][NMeD]-Piperidide; lactam N-11) | 5.8 |
| CCCOC[C@H]1C(=O)N(C)CC(=O)N[C@@H](CCc2ccc(C(F)(F)F)c(Cl)c2)C(=O)N2CCC[C@H]2C(=O)NC2(CCCC2)C(=O)N(C)[C@@H](C(C)C)C(=O)N(C)[C@H](C(=O)N2CCCCC2)CC(=O)N(C)[C@@H](CC(C)C)C(=O)N[C@@H]([C@@H](C)CC)C(=O)N(C)[C@@H](C)C(=O)N2CC[C@H]2C(=O)N1C [Compound 1646] ([NMeL]I[NMeA][Aze][NMeS](Propyl)[Sar][hPhe(3-Cl-4-CF3)]P[Ac5c][NMeV][NMeD]-Piperidide; lactam N-11) | 4.6 |
| CC[C@H](C)[C@@H]1NC(=O)[C@H](CC(C)C)N(C)C(=O)C[C@@H](C)N(C)C(=O)[C@H](C(C)C)N(C)C(=O)C2(CCCC2)NC(=O)[C@@H]2CCCN2C(=O)[C@H](CCc2ccc(C(F)(F)F)c(Cl)c2)NC(=O)CN(C)C(=O)[C@H](CC2CCCCC2)N(C)C(=O)[C@@H]2CCN2C(=O)CN(C)C1=O [Compound 1648] (cyclo([Ac5c][NMeV][NMedβ3hAla][NMeL]I[Sar][Aze][NMeCha][Sar][hPhe(3-Cl-4-CF3)]P)) | 10 |
| CC[C@H](C)[C@@H]1NC(=O)[C@H](CC(C)C)N(C)C(=O)C[C@@H](C(=O)N(C)C)N(C)C(=O)[C@H](C(C)C)N(C)C(=O)C2(CCCC2)NC(=O)[C@@H]2CCCN2C(=O)[C@H](CCc2ccc(C(F)(F)F)c(Cl)c2)NC(=O)CN(C)C(=O)[C@H](Cc2ccc(C)cc2)N(C)C(=O)[C@@H]2CCN2C(=O)[C@H](C)N(C)C1=O [Compound 1653] ([NMeL]I[NMeA][Aze][NMePhe(4-Me)][Sar][hPhe(3-Cl-4-CF3)]P[Ac5c][NMeV][NMeD]-NMe2; lactam N-11) | 0.89 |
| CC[C@H](C)[C@@H]1NC(=O)[C@H](CC(C)C)N(C)C(=O)C[C@@H](C)NC(=O)[C@H]([C@@H](C)CC)N(C)C(=O)C2(CCCC2)NC(=O)[C@@H]2CCCN2C(=O)[C@H](CCc2ccc(C(F)(F)F)c(Cl)c2)NC(=O)CN(C)C(=O)[C@H](CC2CCCCC2)N(C)C(=O)[C@@H]2CCN2C(=O)[C@H](C)N(C)C1=O [Compound 1654] (cyclo([Ac5c][NMeI][d(β3hA)][NMeL]I[NMeA][Aze][NMeCha][Sar][hPhe(3-Cl-4-CF3)]P)) | 22 |
| CC[C@H](C)[C@@H]1NC(=O)[C@H](CC(C)C)N(C)C(=O)C[C@@H](C(=O)N2CCCCC2)N(C)C(=O)[C@H](CC(C)C)N(C)C(=O)C2(CCCC2)NC(=O)[C@@H]2CCCN2C(=O)[C@H](CCc2ccc(C(F)(F)F)c(Cl)c2)NC(=O)CN(C)C(=O)[C@H](CC2CCCCC2)N(C)C(=O)[C@@H]2CCN2C(=O)[C@H](C)N(C)C1=O [Compound 1657] ([NMeL]I[NMeA][Aze][NMeCha][Sar][hPhe(3-Cl-4-CF3)]P[Ac5c][NMeL][NMeD]-Piperidide; lactam N-11) | 2.8 |
| CC[C@H](C)[C@@H]1NC(=O)[C@H](CC(C)C)N(C)C(=O)C[C@@H](C(=O)N2CCCC2)N(C)C(=O)[C@H](C(C)C)N(C)C(=O)C2(CCCC2)NC(=O)[C@@H]2CCCN2C(=O)[C@H](CCc2ccc(C(F)(F)F)c(Cl)c2)NC(=O)CN(C)C(=O)[C@H](CC2CCCCC2)N(C)C(=O)[C@@H]2CCN2C(=O)CN(C)C1=O [Compound 1670] ([NMeL]I[Sar][Aze][NMeCha][Sar][hPhe(3-Cl-4-CF3)]P[Ac5c][NMeV][NMeD]-Pyrrolidide; lactam N-11) | 1 |
| CC[C@H](C)[C@@H]1NC(=O)[C@H](CC(C)C)N(C)C(=O)C[C@@H](C(=O)N2CCCCC2)N(C)C(=O)[C@H](C(C)C)N(C)C(=O)C2(CCC2)NC(=O)[C@@H]2CCCN2C(=O)[C@H](CCc2ccc(C(F)(F)F)c(Cl)c2)NC(=O)CN(C)C(=O)[C@H](CC2CCCCC2)N(C)C(=O)[C@@H]2CCN2C(=O)[C@H](C)N(C)C1=O [Compound 1672] ([NMeL]I[NMeA][Aze][NMeCha][Sar][hPhe(3-Cl-4-CF3)]P[Ac4c][NMeV][NMeD]-Piperidide; lactam N-11) | 4.3 |
| CC[C@H](C)[C@@H]1NC(=O)[C@H](CC(C)C)N(C)C(=O)C[C@@H](C(=O)N(C)C)N(C)C(=O)[C@H](C2CCCCC2)N(C)C(=O)C2(CCCC2)NC(=O)[C@@H]2CCCN2C(=O)[C@H](CCc2ccc(C(F)(F)F)c(Cl)c2)NC(=O)CN(C)C(=O)[C@H](CC2CCCCC2)N(C)C(=O)[C@@H]2CCN2C(=O)[C@H](C)N(C)C1=O [Compound 1675] ([NMeL]I[NMeA][Aze][NMeCha][Sar][hPhe(3-Cl-4-CF3)]P[Ac5c][NMeChg][NMeD]-NMe2; lactam N-11) | 1.2 |
| CC[C@H](C)[C@@H]1NC(=O)[C@H](CC(C)C)N(C)C(=O)C[C@@H](C(=O)N2CCCC2)N(C)C(=O)[C@H](C2CCCC2)N(C)C(=O)C2(CCCC2)NC(=O)[C@@H]2CCCN2C(=O)[C@H](CCc2ccc(C(F)(F)F)c(Cl)c2)NC(=O)CN(C)C(=O)[C@H](CC2CCCCC2)N(C)C(=O)[C@@H]2CCN2C(=O)[C@H](C)N(C)C1=O [Compound 1679] ([NMeL]I[NMeA][Aze][NMeCha][Sar][hPhe(3-Cl-4-CF3)]P[Ac5c][NMeGly(cPent)][NMeD]-Pyrrolidide; lactam N-11) | 0.85 |
| CC[C@H](C)[C@@H]1NC(=O)[C@H](CC(C)C)N(C)C(=O)C[C@@H](C(=O)N(C)C)N(C)C(=O)[C@H](C2CCCCC2)N(C)C(=O)C2(CCCC2)NC(=O)[C@@H]2CCCN2C(=O)[C@H](CCc2ccc(C(F)(F)F)c(Cl)c2)NC(=O)CN(C)C(=O)[C@H](Cc2ccc(C)cc2)N(C)C(=O)[C@@H]2CCN2C(=O)[C@H](C)N(C)C1=O [Compound 1685] ([NMeL]I[NMeA][Aze][NMePhe(4-Me)][Sar][hPhe(3-Cl-4-CF3)]P[Ac5c][NMeChg][NMeD]-NMe2; lactam N-11) | 0.6 |
